Data from US5922775A, “Method of treating malignant tumors with ketone thyroxine analogues having no significant hormonal activity” (priority 1997, dated 1999).

Experiments:
[1] = system: protein phosphatase 2A; conditions: cited from earlier work
[2] = system: cellular esterases; assay: Stability against cellular esterases
From the text: Moreover, amide analogs of DIME, having an NH2 or a substituted amino group, may be subject to hydrolysis catalyzed by cellular amidases. Since the hydrolysis product of such a hydrolysis is a carboxylic acid, the same decrease in efficacy can result. In order to decrease the chemical lability in the DIME pharmacophore structure, ketone analogues of DIME may be used.
A more detailed kinetic comparison of DIME, DIPE and DIPP on the kinetics of MTP assembly, in a concentration range of zero to 10 μM drug and a louvered GTP concentration (10 μM), is shown in FIG. 3.

[3] = system: microtubule protein (MTP); assay: Microtubule assembly (MTP polymerization) in vitro, optical test at 350 nm; assay type: biochemical, bovine or rabbit (brain)
From the text: This inhibition is critically dependent on the concentration of GTP. The quantitative correlation between the concentrations of DIME and GTP, under conditions of a linear rate of MTP polymerization, follows Michaelis-Menten kinetics and the inhibition portrays a "mixed" type, where km for GTP and Vmax are altered simultaneously. Chemical analogues of DIME inhibit MTP polymerization parallel to their antitumorigenic action in vivo. The MTP site is one of the early cellular response sites of DIME.
J. Oncol. Abnormal spindle structures could be the result of DIME-MTP interaction or reactions of DIME with components of the microtubule organizing center or with as yet undefined systems sequentially or in concert. Since time-dependent quantitative analysis of the MTP system in situ is unsuitable for initial velocity measurement we adapted the in vitro assembly system of neurotubules as a model for a quantitative analysis of the interaction of DIME with MTP. […] The time course of MTP assembly consists of initiation and propagation and termination steps, Gaskin, et al., 1974, "Turbidimetric studies of the in vitro assembly and disassembly of porcine neurotubules", J. Mol. Biol. 89:737-758. The rate of propagation under defined conditions is sufficiently linear to permit kinetic analysis, that can be evaluated with respect DIME and GTP concentrations. As we show here the inhibition of MTP assembly by DIME occurs in the same range of drug concentration as required to inhibit tumorigonesis in vivo, or to inhibit cell replication or induce eventual cell death; Mendeleyev, et al., 1997. "Structural specificity and tumoricidal action of methyl-3,5-diiodo-4-(4'-methoxyphenoxy)benzoate (DIME)" Int. J. Oncol., 10:689-695. Therefore the DIME-MTP interaction is most probably a component of the apparently pleiotropic cellular mechanism of action of DIME.
Preparation of MTP and an optical test for polymerization was adopted from published methods, Gaskin, et al., 1974, "Turbidimetric studies of the in vitro assembly and disassembly of porcine neurotubules", J. Mol. Biol. 89:737-758; Tiwari, et al., 1993, "A pH and temperature-dependent cycling method that doubles the yield of microtubule protein", Anal. Biochem. 215:96-103. Bovine or rabbit brain was homogenized in an equal volume of ice cold buffer containing 100 mM Pipes/K^+ (pH 7.4), 4 mM EGTA. 1 mM MgCl2, 0.5 mM DTT and 0.1 mM PMSF, and centrifuged at 39,000 g for 1 hour at 4° C. To the supernatant, DMSO (8% final concentration) and GTP (1 mM final concentration) were added, followed by incubation at 37° C. for 30 minutes. Microtubules were pelleted at 100,000 g at 37° C. for 30 minutes. The pellets were incubated on ice for 15 minutes, followed by resuspension in ice cold PEM buffer (100 mM Pipes/K+ (pH 6.9), 1 mM EGTA, 1 mM MgCl2). This warm polymerization and cold depolymerization cycle was repeated once more and the cold, resuspended monomeric MTP (8-10 mg/ml protein) was used for the optical test for polymerization kinetics. Both rabbit or bovine brain yielded identical MTP preparations.
The polymerization reaction was started by the addition of […] of MTP solution (equivalent to 0.8-1.0 mg protein) and initial linear rates of increase in absorbance at 350 nm followed and recorded at 37° C. in a Perkin-Elmer 552 double beam spectrophotometer, equipped with a thermostatically controlled cuvette holder.
It is apparent that the rate of MTP polymerization proceeds in a linear manner, thus conditions for maximal polymerization rates as defined by Berne, B, 1974, "Interpretation of light scattering from long rods", J. Mol. Biol. 89:755-758 appear fulfilled. Therefore it is possible to determine the quantitative correlation between [DIME] and [GTP] by comparing the linear rate in the presence of varying drug and activator concentrations.
The assay system consisted of 240 μl of PEM buffer containing 8% DMSO […]
(added in 3 μl), or solvent control and 0.6 mg MTP (60 μl). […]

[4] = system: cancer cells; assay: Blocking of mitosis in cancer cells; assay type: cell-based
[5] = system: human mammary cancer cells (MDA-MB-231); assay: Growth of human mammary cancer cells (Table 2 A); assay type: cell-based; conditions: 2 μM
From the text: The effects of these three substances on the growth of human mammary cancer cells (MDA-MB-231) and human lung cancer cells (A 549) are summarized in Table 2.
In section (a) of Table 2 the effects of DIME, DIPE and DIPP on the growth of mammary cancer cells, assayed at 48 and 72 hrs, is shown. […] The slightly lesser efficacy of DIPP could be predicted from earlier results obtained with DIME analogs (International Journal of Oncology, 1997, 10, 689-695, FIG. 1) where we have shown that extending the methyl to ethyl substitution (on the carboxyl ester) diminishes cytotoxicity against tumor cells. A similar phenomenon occurs when DIPE is extended to DIPP (i.e. from the ethanone to the propanone).
(×10^3) Cell number per 2 cm^2

[6] = system: biosynthetic pathways of DNA, RNA or proteins; conditions: cited from earlier work
[7] = system: mammary cancer cells; assay: Colony formation by mammary cancer cells (FIG. 1); assay type: cell-based, human; conditions: DIME vs DIPE
From the text: FIG. 1 is a graph illustrating the cell killing effects of DIME and DIPE on mammary cancer colonies;
The effect of DIME and DIPE on colony formation by mammary cancer cells is illustrated in FIG. 1, where the results are superimposable, confirming that cytocidal action of DIME and DIPE are indistinguishable.

[8] = system: human mammary cancer cells (MDA-MB-231); conditions: 1 mM DIME [sic]; within 18 hours; cited from earlier work
[9] = system: non-malignant mouse pituitary adenoma; conditions: cited from earlier work

## COC(=O)c1cc(I)c(Oc2ccc(OC)cc2)c(I)c1 [DIME, methyl 3,5-diiodo-4-(4'-methoxyphenoxy)benzoate]
[1]
  activation of protein phosphatase 2A: directly activates protein phosphatase 2A
[2]
  stability against esterases: labile with respect to hydrolysis catalyzed by cellular esterases
[3]; 10 μM drug, GTP 1 mM, 37° C., averages of duplicate assay
  Percent inhibition of intitial velocity (microtubule assembly in vitro): 93%
[3]; 1 mM DIME [sic]
  change of km GTP: ~50%
  decrease of Vmax: ~50%
[3]; 1 mM DIME [sic], from 6.7 mM without drug, read-out: km GTP in presence of DIME
  Km: 14 µM
[3]; 1 mM GTP, increasing DIME concentrations
  inhibition of MTP polymerization with increasing DIME: progressively inhibit MTP polymerization
[3]; DIME at 1 to 5 mM as printed
  inhibition of GTP-dependent polymerization of MTP: inhibits the GTP-dependent polymerization of MTP
[3]; double reciprocal plot / Michaelis-Menten, 1 mM DIME
  type of inhibition of MTP polymerization (DIME vs GTP): "mixed" type inhibition
[3]; drug concentrations up to 20 μM
  inhibitory action on MTP assembly (comparison, FIG. 2): similar
[3]; zero to 10 μM drug, lowered GTP concentration (10 μM)
  order of potency on MTP assembly (FIG. 3): DIME>DIPE>DIPP
[4]
  blocking of mitosis in cancer cells: capable of blocking mitosis in cancer cells
[5]; 48 hours, control 150
  Cell number: 60 ×10^3 cell number per 2 cm^2 w
[5]; 72 hours, control 300
  Cell number: 65 ×10^3 cell number per 2 cm^2 w
[6]
  inhibition of biosynthetic pathways of DNA, RNA or proteins: nor does it inhibit the biosynthetic pathways of DNA, RNA or proteins
[7]
  effect on colony formation (FIG. 1): superimposable
[8]
  abnormal spindle structures: induced abnormal spindle structures
[9]
  inhibition of growth of non-malignant pituitary tumor: no inhibitory activity
